# Source: patent US20260327655A1, “SMALL-MOLECULE REGULATED ALTERNATIVE SPLICING” (priority 2023, published 2026)
# Test system: RS1-10
# Assay: In vivo mouse study of RS1-10 activation (AAV-PHP.eB, bioluminescent imaging)
# Set-up: species or system C57BL/6 mice
# Settings: 10 mg/kg single oral gavage
# Procedure: C57BL/6 mice underwent tail vein injection of 3.00E+11 vector (depicted in FIG. 11A) genomes/mouse AAV vector composed of a genome containing a cloned human Synapsin promoter driving the expression of a Firefly Luciferase gene. Expression of the luciferase gene was gated by the RS1-10 switch. The AAV vector utilized a brain-penetrant AAV-PHP.eB capsid (FIG. 11A). At approximately 3 weeks after AAV delivery, mice were either dosed with compound vehicle or 10 mg/kg 24 A as a single oral gavage. 6 hours after the oral dosing, mice were intraperitoneally administered D-Luciferin (150 mg/kg), anesthetized, and imaged with a bioluminescent imaging (BLI) system to analyze activation of RS1-10. Light flux from expressed Firefly Luciferase was measured from the whole body of each mouse as radiance and a brightfield image was also taken as an anatomical reference (FIG. 11B). […]
# C57BL/6 mice underwent tail vein injection of 3.00E+11 vector genomes/mouse AAV vector composed of a genome containing a cloned human Synapsin promoter driving the expression of a Firefly Luciferase gene. […] Light flux from expressed Firefly Luciferase was measured from the whole body of each mouse as radiance and a brightfield image was also taken as an anatomical reference. […]
smiles,measurement,setting,value
"CCN1CC(c2ccc(-c3ccc(-c4ccc5nn(C)cc5c4)cc3O)nn2)C1 [Compound 24A, 2-[6-(1-ethylazetidin-3-yl)pyridazin-3-yl]-5-(2-methyl-2H-indazol-5-yl)phenol]",light flux from the heads of mice (bioluminescent imaging),"6 hours post dose, ~3 weeks after AAV delivery, vs vehicle",Significant increases in light flux
same,bioluminescent signal after drug washout,7 days post dose,No significant signal was detected
